Experiment in all cases: relative viability (nuclei count vs DMSO), 5 days (fraction); higher = more cells survive
Compound in the assay “Bemcentinib + Luminespib”: Nc1nc(Nc2ccc3c(c2)CC[C@@H](N2CCCC2)CC3)nn1-c1cc2c(nn1)-c1ccccc1CCC2 [Bemcentinib] + CCNC(=O)c1noc(-c2cc(C(C)C)c(O)cc2O)c1-c1ccc(CN2CCOCC2)cc1 [Luminespib] (partner 0.01 µM)
The gist of the method: (§1)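 Relative viability equals treated-well nuclei counts divided by vehicle-well nuclei counts. Counts came from 4× images of lung cancer cell lines grown in 1536-well plates for 5 days after pin-tool dosing on the day after seeding. Dosing used one drug alone or a fixed anchor-drug dose plus five library-drug doses (not always all listed) in √10 steps, and values are medians of duplicate plates.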

Compound in the assay “Bemcentinib + OSI-027”: Nc1nc(Nc2ccc3c(c2)CC[C@@H](N2CCCC2)CC3)nn1-c1cc2c(nn1)-c1ccccc1CCC2 [Bemcentinib] + COc1cccc2cc(-c3nc([C@H]4CC[C@H](C(=O)O)CC4)n4ncnc(N)c34)[nH]c12 [OSI-027] (partner 0.5 µM)
The method, boiled down:
as §1

Compound in the assay “Axitinib + Linsitinib”: CNC(=O)c1ccccc1Sc1ccc2c(/C=C/c3ccccn3)n[nH]c2c1 [Axitinib] + C[C@]1(O)C[C@@H](c2nc(-c3ccc4ccc(-c5ccccc5)nc4c3)c3c(N)nccn32)C1 [Linsitinib] (partner 1 µM)
The method, boiled down:
as §1

Compound in the assay “Bemcentinib + Pemetrexed”: Nc1nc(Nc2ccc3c(c2)CC[C@@H](N2CCCC2)CC3)nn1-c1cc2c(nn1)-c1ccccc1CCC2 [Bemcentinib] + Nc1nc2[nH]cc(CCc3ccc(C(=O)N[C@@H](CCC(=O)O)C(=O)O)cc3)c2c(=O)[nH]1 [Pemetrexed] (partner 0.2 µM)
The method, boiled down: as §1

Regarding 201T, the relative viability is 1.07 with Bemcentinib + Luminespib (first compound 0.04 µM); 1.05 in the assay with Bemcentinib + Luminespib (first compound 0.1265 µM); 1.14 with Bemcentinib + Luminespib (first compound 0.4 µM); 1.07 with Bemcentinib + Luminespib (first compound 1.265 µM); 1.14 with Bemcentinib + Luminespib (first compound 4 µM); 0.599 in the assay with Bemcentinib + OSI-027 (first compound 0.04 µM). Further, the relative viability is 1.02 with Bemcentinib + OSI-027 (first compound 0.1265 µM); 0.778 with Bemcentinib + OSI-027 (first compound 0.4 µM); 0.709 with Bemcentinib + OSI-027 (first compound 1.265 µM); 0.801 with Bemcentinib + OSI-027 (first compound 4 µM); 1.08 with Axitinib + Linsitinib (first compound 0.005 µM); 1 with Axitinib + Linsitinib (first compound 0.01581 µM). Also, the relative viability with Axitinib + Linsitinib (first compound 0.05 µM) was 1.02; in the assay with Axitinib + Linsitinib (first compound 0.1581 µM), 0.965; with Axitinib + Linsitinib (first compound 0.5 µM), 0.966; with Bemcentinib + Pemetrexed (first compound 0.04 µM), 0.307; with Bemcentinib + Pemetrexed (first compound 0.1265 µM), 0.361; with Bemcentinib + Pemetrexed (first compound 0.4 µM), 0.326. The relative viability in the assay with Bemcentinib + Pemetrexed (first compound 1.265 µM) is 0.361; with Bemcentinib + Pemetrexed (first compound 4 µM), 0.327.
In the case of A549, the relative viability was 0.606 with Axitinib + Linsitinib (first compound 0.005 µM); 0.606 with Axitinib + Linsitinib (first compound 0.01581 µM); 0.595 in the assay with Axitinib + Linsitinib (first compound 0.05 µM); 0.529 with Axitinib + Linsitinib (first compound 0.1581 µM); 0.573 with Axitinib + Linsitinib (first compound 0.5 µM).
As to A-427, the relative viability is 1.04 with Bemcentinib + Luminespib (first compound 0.04 µM); 1.09 with Bemcentinib + Luminespib (first compound 0.1265 µM); 0.934 with Bemcentinib + Luminespib (first compound 0.4 µM); 0.822 with Bemcentinib + Luminespib (first compound 1.265 µM); 0.737 with Bemcentinib + Luminespib (first compound 4 µM); 0.455 with Bemcentinib + OSI-027 (first compound 0.04 µM). The relative viability with Bemcentinib + OSI-027 (first compound 0.1265 µM) was 0.511; with Bemcentinib + OSI-027 (first compound 0.4 µM), 0.492; in the assay with Bemcentinib + OSI-027 (first compound 1.265 µM) it was 0.427; with Bemcentinib + OSI-027 (first compound 4 µM) it was 0.472; with Axitinib + Linsitinib (first compound 0.005 µM), 1.14; with Axitinib + Linsitinib (first compound 0.01581 µM), 1.02. For the same cell line, the relative viability with Axitinib + Linsitinib (first compound 0.05 µM) was determined as 1.11; with Axitinib + Linsitinib (first compound 0.1581 µM), 1.16; with Axitinib + Linsitinib (first compound 0.5 µM), 1.17; in the assay with Bemcentinib + Pemetrexed (first compound 0.04 µM), 0.966; with Bemcentinib + Pemetrexed (first compound 0.1265 µM), 1.02; in the assay with Bemcentinib + Pemetrexed (first compound 0.4 µM) it was 1.08. Also, the relative viability was 0.928 with Bemcentinib + Pemetrexed (first compound 1.265 µM) and 0.936 in the assay with Bemcentinib + Pemetrexed (first compound 4 µM).
In the case of ABC-1, the relative viability was determined as 0.456 in the assay with Bemcentinib + Luminespib (first compound 0.04 µM); 0.682 with Bemcentinib + Luminespib (first compound 0.1265 µM); 0.801 with Bemcentinib + Luminespib (first compound 0.4 µM); 1.02 in the assay with Bemcentinib + Luminespib (first compound 1.265 µM); 0.741 with Bemcentinib + Luminespib (first compound 4 µM); 0.435 with Bemcentinib + OSI-027 (first compound 0.04 µM). In addition, the relative viability stood at 0.402 with Bemcentinib + OSI-027 (first compound 0.1265 µM); 0.469 in the assay with Bemcentinib + OSI-027 (first compound 0.4 µM); 0.683 in the assay with Bemcentinib + OSI-027 (first compound 1.265 µM); 0.507 in the assay with Bemcentinib + OSI-027 (first compound 4 µM); 0.972 in the assay with Axitinib + Linsitinib (first compound 0.005 µM); 0.947 with Axitinib + Linsitinib (first compound 0.01581 µM). In addition, the relative viability with Axitinib + Linsitinib (first compound 0.05 µM) is 0.745; in the assay with Axitinib + Linsitinib (first compound 0.1581 µM), 0.759; with Axitinib + Linsitinib (first compound 0.5 µM) it was 1.22.
For BEN, the relative viability with Bemcentinib + Luminespib (first compound 0.04 µM) was 0.178; with Bemcentinib + Luminespib (first compound 0.1265 µM) it was 0.395; with Bemcentinib + Luminespib (first compound 0.4 µM), 0.563; in the assay with Bemcentinib + Luminespib (first compound 1.265 µM), 0.199; in the assay with Bemcentinib + Luminespib (first compound 4 µM) it was 0.236; with Bemcentinib + OSI-027 (first compound 0.04 µM), 0.292. The relative viability in the assay with Bemcentinib + OSI-027 (first compound 0.1265 µM) came to 0.288; with Bemcentinib + OSI-027 (first compound 0.4 µM) it was 0.296; in the assay with Bemcentinib + OSI-027 (first compound 1.265 µM) it was 0.345; in the assay with Bemcentinib + OSI-027 (first compound 4 µM), 0.322; in the assay with Axitinib + Linsitinib (first compound 0.005 µM) it was 1.04; in the assay with Axitinib + Linsitinib (first compound 0.01581 µM), 1.01. The relative viability was 0.689 with Axitinib + Linsitinib (first compound 0.05 µM); 0.803 with Axitinib + Linsitinib (first compound 0.1581 µM); 0.928 with Axitinib + Linsitinib (first compound 0.5 µM); 0.62 in the assay with Bemcentinib + Pemetrexed (first compound 0.04 µM); 0.895 with Bemcentinib + Pemetrexed (first compound 0.1265 µM); 0.782 with Bemcentinib + Pemetrexed (first compound 0.4 µM). In addition, the relative viability with Bemcentinib + Pemetrexed (first compound 1.265 µM) was 0.678; in the assay with Bemcentinib + Pemetrexed (first compound 4 µM), 0.592.
Consider CAL-12T, for which the relative viability is 0.273 with Bemcentinib + Luminespib (first compound 0.04 µM); 0.462 in the assay with Bemcentinib + Luminespib (first compound 0.1265 µM); 0.388 with Bemcentinib + Luminespib (first compound 0.4 µM); 0.363 with Bemcentinib + Luminespib (first compound 1.265 µM); 0.453 with Bemcentinib + Luminespib (first compound 4 µM); 0.6 with Bemcentinib + OSI-027 (first compound 0.04 µM). Besides, the relative viability with Bemcentinib + OSI-027 (first compound 0.1265 µM) was 0.912; in the assay with Bemcentinib + OSI-027 (first compound 0.4 µM), 0.77; with Bemcentinib + OSI-027 (first compound 1.265 µM), 0.769; with Bemcentinib + OSI-027 (first compound 4 µM), 0.755; with Axitinib + Linsitinib (first compound 0.005 µM) it was 0.873; with Axitinib + Linsitinib (first compound 0.01581 µM) it was 0.903. For the same cell line, the relative viability worked out at 0.748 with Axitinib + Linsitinib (first compound 0.05 µM); 0.911 with Axitinib + Linsitinib (first compound 0.1581 µM); 0.712 in the assay with Axitinib + Linsitinib (first compound 0.5 µM); 1.11 with Bemcentinib + Pemetrexed (first compound 0.04 µM); 1.47 with Bemcentinib + Pemetrexed (first compound 0.1265 µM); 1.09 in the assay with Bemcentinib + Pemetrexed (first compound 0.4 µM). Besides, the values for the relative viability in the assay with Bemcentinib + Pemetrexed (first compound 1.265 µM) and with Bemcentinib + Pemetrexed (first compound 4 µM) were 1.1 and 1.13, respectively.
With Calu-6, the relative viability came out at 1.08 in the assay with Axitinib + Linsitinib (first compound 0.005 µM); 0.97 in the assay with Axitinib + Linsitinib (first compound 0.01581 µM); 1.06 in the assay with Axitinib + Linsitinib (first compound 0.05 µM); 1.01 in the assay with Axitinib + Linsitinib (first compound 0.1581 µM); 1.07 with Axitinib + Linsitinib (first compound 0.5 µM).
With ChaGo-K-1, the relative viability with Bemcentinib + Luminespib (first compound 0.04 µM) was determined as 0.573; in the assay with Bemcentinib + Luminespib (first compound 0.1265 µM), 0.542; with Bemcentinib + Luminespib (first compound 0.4 µM), 0.701; with Bemcentinib + Luminespib (first compound 1.265 µM) it was 0.843; with Bemcentinib + Luminespib (first compound 4 µM) it was 0.587; with Bemcentinib + OSI-027 (first compound 0.04 µM), 0.515. For the same cell line, the relative viability came to 0.794 in the assay with Bemcentinib + OSI-027 (first compound 0.1265 µM); 0.626 with Bemcentinib + OSI-027 (first compound 0.4 µM); 0.614 with Bemcentinib + OSI-027 (first compound 1.265 µM); 0.531 with Bemcentinib + OSI-027 (first compound 4 µM); 0.265 with Bemcentinib + Pemetrexed (first compound 0.04 µM); 0.262 in the assay with Bemcentinib + Pemetrexed (first compound 0.1265 µM). The relative viability stood at 0.274 with Bemcentinib + Pemetrexed (first compound 0.4 µM), 0.244 with Bemcentinib + Pemetrexed (first compound 1.265 µM) and 0.251 in the assay with Bemcentinib + Pemetrexed (first compound 4 µM).
Turning to EBC-1, the relative viability with Axitinib + Linsitinib (first compound 0.005 µM) was 0.935; with Axitinib + Linsitinib (first compound 0.01581 µM) it was 0.874; in the assay with Axitinib + Linsitinib (first compound 0.05 µM) it was 0.884; with Axitinib + Linsitinib (first compound 0.1581 µM) it was 0.904; with Axitinib + Linsitinib (first compound 0.5 µM), 1.1.
Take HCC-78: the relative viability in the assay with Bemcentinib + OSI-027 (first compound 0.04 µM) was 0.343; with Bemcentinib + OSI-027 (first compound 0.1265 µM), 0.348; in the assay with Bemcentinib + OSI-027 (first compound 0.4 µM) it was 0.38; with Bemcentinib + OSI-027 (first compound 4 µM), 0.371; with Axitinib + Linsitinib (first compound 0.005 µM) it was 0.602; in the assay with Axitinib + Linsitinib (first compound 0.01581 µM), 0.414. For the same cell line, the relative viability with Axitinib + Linsitinib (first compound 0.05 µM) came out at 0.52; with Axitinib + Linsitinib (first compound 0.1581 µM), 0.526; in the assay with Axitinib + Linsitinib (first compound 0.5 µM) it was 0.479; in the assay with Bemcentinib + Pemetrexed (first compound 0.04 µM), 0.923; with Bemcentinib + Pemetrexed (first compound 0.1265 µM), 1.01; with Bemcentinib + Pemetrexed (first compound 0.4 µM), 0.942. Also, the results for the relative viability in the assay with Bemcentinib + Pemetrexed (first compound 1.265 µM) and with Bemcentinib + Pemetrexed (first compound 4 µM) were 0.895 and 0.95, respectively.

Source of the values: the supplement of paper PMC10307832.
